# Article PMC4085075, “Characterization of Estrogen and Androgen Activity of Food Contact Materials by Different In Vitro Bioassays (YES, YAS, ERα and AR CALUX) and Chromatographic Analysis (GC-MS, HPLC-MS)” (PLoS ONE, 2014)
# Like-named read-outs stand apart in the source and are kept apart here.
# Key:
# [1] = molecular target: T1, human estrogen receptor alpha (hERα) (Homo sapiens, UniProt P03372); test: ERα CALUX reporter gene assay in U2-OS cells; assay type: cell-based; conditions: for EC50: footnote a: inhibition of U2-OS cell growth at higher concentrations
# T1 construct: host or cells: human U2-OS osteosarcoma cells
# T1 sequence (P03372 1-595): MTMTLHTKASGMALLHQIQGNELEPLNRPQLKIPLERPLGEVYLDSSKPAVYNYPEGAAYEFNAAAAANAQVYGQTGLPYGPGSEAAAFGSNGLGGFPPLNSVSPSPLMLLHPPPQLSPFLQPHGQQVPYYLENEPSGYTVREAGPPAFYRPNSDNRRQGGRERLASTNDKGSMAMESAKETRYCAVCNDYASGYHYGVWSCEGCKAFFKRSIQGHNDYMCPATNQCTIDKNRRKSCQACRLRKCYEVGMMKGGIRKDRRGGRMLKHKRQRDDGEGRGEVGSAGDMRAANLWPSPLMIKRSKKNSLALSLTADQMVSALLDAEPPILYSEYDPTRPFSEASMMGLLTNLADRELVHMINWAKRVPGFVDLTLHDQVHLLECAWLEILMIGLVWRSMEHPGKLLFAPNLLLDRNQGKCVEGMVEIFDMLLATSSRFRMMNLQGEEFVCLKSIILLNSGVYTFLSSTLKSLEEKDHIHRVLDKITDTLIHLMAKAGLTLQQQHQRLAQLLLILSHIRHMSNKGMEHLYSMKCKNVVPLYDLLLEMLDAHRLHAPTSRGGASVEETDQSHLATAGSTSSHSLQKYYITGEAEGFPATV
# Experimental: (§1) Briefly, different resin types of food packaging were migrated with food simulants for 10 days at 60°C. […] From every sample two independent migrates were prepared, subsequently concentrated by solid phase extraction and tested in the bioassays. […] For each migration a solvent blank of each food simulant was migrated in a glass bottle with a polytetrafluorethylene-coated cap. Prior to solid phase extraction, 1 ml and 20 ml of each migrate were set aside for HPLC and GC analysis.
# (§2) After 10 days of migration, solid phase extraction by Waters Oasis HLB columns (5 cc/200 mg) was used to extract hormone active components from the food simulants. As described in detail by Kirchnawy et al. sample migrates diluted to 10% ethanol and adjusted to pH 3 were drawn through the columns and eluted into […] DMSO. Elutes were evaporated under a nitrogen stream to a final volume of 150–200 µl and stored at 4°C prior to analysis by YES, YAS and CALUX bioassays. Extraction recoveries and reproducibility of the solid phase extraction were previously determined by Kirchnawy et al..
# The ERα CALUX is a human U2-OS cell line stably co-transfected with an expression construct for the human estrogen receptor alpha (hERα). Activation of the hERα by the binding of an estrogen active substance leads to the transcription of luciferase, which emits light when luciferin is added as a substrate.
# Assay procedure was conducted as previously described by Sonneveld et al. with modifications. U2-OS cells were plated at a concentration of 10 000 cells/well with 100 µl phenol red-free Dulbecco's modified eagle medium (DMEM) (supplemented with dextran-coated charcoal-stripped FCS) in a 96-well microtiter plate. After 24 h incubation at 37°C in a humidified atmosphere with 5% CO2, DMEM medium was refreshed and cells were incubated for another 24 h with 0.5% of the respective DMSO sample extract. After examining cell growth under a microscope to ensure that sample extracts had no cytotoxic or growth inhibiting effects, 50 µl Steady Glo Luciferase-Mix (Promega) was added to each well and incubated for 15 min for cell lysis. This was followed by measuring the luciferase activity of each well using a multilabel reader (Victor^3, Perkin Elmer).
# [2] = molecular target: T2, human estrogen receptor (hERα) (Homo sapiens, UniProt P03372); test: Yeast estrogen screen (YES); assay type: cell-based
# T2 construct: expressed in transfected cells; host or cells: recombinant yeast strain (provided by Wagner and Oehlmann, Frankfurt; by permission of Routledge and Sumpter)
# T2 sequence (P03372 1-595): T1 sequence (P03372 1-595)
# Experimental: as §1, §2
# The yeast strain contains the stably integrated human estrogen receptor (hERα) gene and an expression plasmid containing the reporter gene lacZ under the control of estrogen responsive elements (ERE). The activation of the hERα by the binding of an estrogen active substance leads to the expression of β-galactosidase, which converts the substrate chlorophenol red-β-D-galactopyranoside (CPRG) into chlorophenol red.
# The analysis of food contact materials was conducted as previously described by Kirchnawy et al.. Briefly, yeast cells were incubated with fresh media supplemented with 1% of the respective DMSO sample extracts on a 96-well microtiter plate for 24 h. […] The regression was calculated by MS Excel, using the formula for a linear regression curve (y = kx + d).
# [3] = test system: kidney fibroblast cell 293T and human breast cancer cells ZR-75; design: method as in PMID 7556011; conditions: at a concentration of 100 µmol/l; cited from earlier work
# [4] = design: method as in PMID 21050888; conditions: cited from earlier work
# [5] = molecular target: T3, human androgen receptor (hAR) (Homo sapiens, UniProt P10275); test: AR CALUX reporter gene assay in U2-OS cells; assay type: cell-based; design: host or cells: human U2-OS osteosarcoma cells; conditions: footnote a: inhibition of U2-OS cell growth at higher concentrations
# T3 sequence (P10275 1-920): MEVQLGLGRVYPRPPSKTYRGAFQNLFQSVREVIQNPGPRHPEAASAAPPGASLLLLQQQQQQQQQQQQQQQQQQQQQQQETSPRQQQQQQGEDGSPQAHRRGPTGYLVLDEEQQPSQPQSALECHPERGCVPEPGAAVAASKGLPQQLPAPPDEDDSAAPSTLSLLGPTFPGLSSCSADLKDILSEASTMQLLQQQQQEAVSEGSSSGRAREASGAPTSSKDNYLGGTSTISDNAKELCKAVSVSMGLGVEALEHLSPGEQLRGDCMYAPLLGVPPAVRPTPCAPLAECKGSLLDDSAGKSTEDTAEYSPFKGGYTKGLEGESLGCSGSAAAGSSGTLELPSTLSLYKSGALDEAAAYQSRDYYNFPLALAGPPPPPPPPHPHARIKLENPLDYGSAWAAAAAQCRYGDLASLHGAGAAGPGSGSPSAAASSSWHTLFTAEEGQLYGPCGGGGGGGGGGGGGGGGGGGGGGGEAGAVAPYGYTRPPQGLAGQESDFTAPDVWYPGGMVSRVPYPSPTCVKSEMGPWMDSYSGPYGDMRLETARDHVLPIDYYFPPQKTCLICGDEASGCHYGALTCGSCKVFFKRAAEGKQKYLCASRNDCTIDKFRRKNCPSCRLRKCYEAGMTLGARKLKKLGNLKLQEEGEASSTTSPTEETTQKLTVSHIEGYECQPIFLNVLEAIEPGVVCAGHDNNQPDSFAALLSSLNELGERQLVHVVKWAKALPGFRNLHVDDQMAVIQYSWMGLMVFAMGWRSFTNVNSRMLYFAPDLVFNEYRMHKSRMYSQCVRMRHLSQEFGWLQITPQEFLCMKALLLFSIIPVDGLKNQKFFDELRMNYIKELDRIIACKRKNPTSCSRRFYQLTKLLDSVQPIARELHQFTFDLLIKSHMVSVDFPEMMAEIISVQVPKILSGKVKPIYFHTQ
# Experimental: as §1, §2
# [6] = molecular target: T3, human androgen receptor (hAR); test: Yeast androgen screen (YAS); assay type: cell-based; conditions: footnote b: inhibition of yeast growth at higher concentrations
# Experimental: as §1, §2
# rainbow trout = test system: rainbow trout; design: method as in PMID 18261797; conditions: cited from earlier work
# CHO-K1 cells = test system: CHO-K1 cells; design: method as in PMID 18261797; conditions: cited from earlier work
# MCF7 = test system: MCF7; design: method as in PMID 11485868; conditions: human cell-based MCF7 proliferation assay; cited from earlier work
# [7] = agonist mode, read-out: ER CALUX Estrogen activity EC50
# [8] = antagonist mode, spiked with 8 pmol/l 17β-estradiol, read-out: ER CALUX Antiestrogen activity EC50
# [9] = agonist mode, footnote b: inhibition of yeast growth at higher concentrations, read-out: YES Estrogen activity EC50
# [10] = antagonist mode, spiked with 80 pmol/l 17β-estradiol, footnote b: inhibition of yeast growth at higher concentrations, read-out: YES Antiestrogen activity EC50
SMILES,estrogen activity in the ERα CALUX (in words) ([1]; agonist mode),estrogen activity in the YES (in words) ([2]; agonist mode),"EC50 [1, 7] [µM]","EC50 [1, 8] [µM]","EC50 [2, 9] [µM]","EC50 [2, 10] [µM]",further results
"CC(C)(c1ccccc1)c1ccc(O)c(C(C)(C)c2ccccc2)c1 [2,4-di-cumylphenol]",showed estrogen activity,showed estrogen activity,,,,,"EC50 ([1]; ER CALUX Antiestrogen activity EC50, antagonist mode, spiked with 8 pmol/l 17β-estradiol): > 20 µM; EC50 ([1]; ER CALUX Estrogen activity EC50, agonist mode): 5 µM; EC50 [2]: > 300 µM"
"Cc1cc(C(C)(C)C)c(O)c(C(C)(C)C)c1 [2,6-bis(1,1-dimethylethyl)-4-methylphenol]",,,,,,,estrogen activity in 293T and ZR-75 cells [3]: tested positive for estrogen
"CCCCC(CC)COC(=O)CCCCC(=O)OCC(CC)CCCC (stereo not drawn) [diethylhexyladipate (DEHA), diethylhexyladipate]",did not show any activity,did not show any activity,> 500,> 500,> 1000,> 1000,estrogen activity using the E-Screen [4]: tested positive for estrogen activity
"c1ccc(CCCc2ccccc2)cc1 [1,3-diphenylpropane]",tested positive for estrogen activity,tested positive for estrogen activity,40,> 500,500,> 1000,"EC50 ([5]; agonist mode, read-out: AR CALUX Androgen activity EC50): > 500 µM; EC50 ([5]; antagonist mode, spiked with 400 pmol/l DHT, read-out: AR CALUX Antiandrogen activity EC50): 30 µM; EC50 ([6]; agonist mode, read-out: YAS Androgen activity EC50): > 1000 µM; EC50 ([6]; antagonist mode, spiked with 2.4 nmol/l DHT, read-out: YAS Antiandrogen activity EC50): 30 µM"
"CC(C)(C)c1ccc(O)c(C(C)(C)C)c1 [2,4-di-tert-butylphenol]",,,> 20,> 20,> 10,> 10,androgen antagonist in rainbow trout (rainbow trout): androgen antagonist; androgen antagonist in CHO-K1 cells (CHO-K1 cells): androgen antagonist
"c1ccc(C2CCC2c2ccccc2)cc1 (stereo not drawn) [1,2-diphenylcyclobutane]",,,,,,,times less active than 17β-estradiol (MCF7): 4*10^5
